Data published in patent publication US20250025451A1, “TREATMENT OF CANCER WITH KDM4 INHIBITORS” (Celgene Corporation, priority 2021, published 2025).
Where two headings read alike, the source gives them in different places.

What was measured:
[1] = tested on: IMR-90; assay: cell-proliferation assay (BrdU, CTG), IMR-90 normal fibroblast; type: cell-based; conditions: IMR-90, (normal) human fetal lung fibroblast, 168 hours
Protocol: Compound 1 was evaluated in in vitro cell-proliferation assays (BrdU assay, MTS assay, or Cell Titer Glo (CTG) assay) in multiple cancer cell lines and patient-derived organoid models to determine half-maximal inhibitory concentrations (IC50s).
Viability and BrdU thymidine incorporation assays were performed in multiwell plates seeded with cells in growth medium. After seeding, multiwell plates were cultured for 24 hours in a humidified incubator at 37° C. to promote adherence. […] The cultures were incubated for 168 hours after which the number of viable cells or the amount of thymidine incorporation in each test well was assessed by the methods as indicated above. Readouts were performed using an EnVision® Multilabel Reader (PerkinElmer, Waltham, MA) and the results were expressed as a percent of the negative control. Percent of Control values were plotted against the corresponding Compound 1 concentration and the relative IC50 value was determined from a non-linear regression curve as the concentration where inhibition was half-maximal. For cell lines where the number of IC50 determinations exceeded one, the IC50 was expressed as the mean IC50±SD.
Half-maximal inhibitory concentration (IC50) values for Compound 1 inhibition of cell proliferation were determined for nine cancer cell lines and one normal human fibroblastcell line.

[2] = tested on: SU106 patient-derived colon cancer organoid model; assay: organoid colony formation assay, SU106; type: cell-based, human
Protocol: (§1) The IC50 values for Compound 1 inhibition of colony formation and viability were determined for the patient-derived colon cancer organoid models: SU60, T002C, SU62, SU34, SU103, T03SC, and SU106, patient-derived pancreatic cancer organoid models PA016SF, PA0143F, T016P, and T028P, and a patient-derived breast cancer organoid model FS5S3.
(§2) Colony formation and viability assays were performed in multiwell plates seeded with organoids using an in vitro culture system composed of a Matrigel layer, media containing a defined set of growth factors, and co-culture with Wnt3 A-secreting mouse embryonic fibroblasts. Assays were initiated by adding either DMSO as a negative control, or an inhibitor panobinostatat 100×IC50 concentration as a positive control, or serially diluted Compound 1. The cultures were incubated for 168 or 144 hours after which the number of viable organoids in each test well was assessed respectively using one of two detection methods: CTG or staining with calcein-AM followed by imaging and colony counting. Colony count or viability of cells treated with compound 1 was expressed as a percent of the negative control. Aggregated Percent of Control values were plotted against the corresponding Compound 1 concentration and the absolute IC50 value was determined from a non-linear regression curve as the concentration where inhibition was 50% of the control.

[3] = tested on: T016P patient-derived pancreatic cancer organoid model; assay: organoid colony formation assay, T016P; type: cell-based, human
Protocol: as §1, §2

[4] = tested on: T028P patient-derived pancreatic cancer organoid model; assay: organoid colony formation assay, T028P; type: cell-based, human
Protocol: as §1, §2

[5] = tested on: KYSE-150 human esophageal cancer xenograft; type: in vivo; conditions: for Median Tumor Volumes Day 19: KYSE-150 CDX Study #1, female NSG mice; for % TGI / Median Tumor Volumes Diff.: KYSE-150 Study #1; for % TGI: Day 19; for Median Tumor Volumes Diff.: Day 19 minus Day 1
Protocol: The therapeutic in vivo efficacy of Compound 1 was evaluated in SU60 colorectal cancer, KYSE-150 esophageal cancer, COH70 triple-negative breast cancer, GXA-3036 gastric adenocarcinoma and OCI-LY19 Diffuse Large B-Cell Non-Hodgkin's Lymphoma xenograft models. In all studies, efficacy was determined based on percent tumor growth inhibition (TGI), differences in mean tumor growth, and statistical assessment of differences in net tumor volume distributions on the day of TGI analysis between control and treated animals. Tolerability was assessed based on differences in mean body weights between control and treated animals over the course of the study.
Study #1—The in vivo therapeutic efficacy and tolerability of Compound 1, administered orally as the lysine salt suspended in a vehicle comprised of 10% PEG 400 and 90% of 0.5% methylcellulose (MC), was evaluated in the KYSE-150 ESCC CDX model established in female NSG mice. As presented in Table 5, […] at 5, 15, or 50 mg/kg (free acid equivalents) administered on the 3 on/4 off schedule yielded dose-dependent TGIs of 19%, 50%, and 72%, respectively. […] As shown in FIG. 11 (left panel), tumor growth in the Compound 1-treated groups was reduced relative to control animals. The relative rates of tumor growth among the various Compound 1-treated groups were consistent with the TGI attained at study end. As presented in FIG. 11 (right panel), Compound 1 appeared well-tolerated with nominal mean body weight gains over the course of the study. Each mouse was inoculated subcutaneously in the right flank with 1×10^7 KYSE-150 tumor cells (0.1 ml) suspended in PBS. When the average tumor size reached ˜117 mm3, test animals were randomized into 4 groups consisting of 9 mice per group and treatments were initiated. Control mice received 10% PEG 400 and 90% of 0.5% MC vehicle PO 3 on/4 off. Treated mice received the Compound 1 lysine salt form suspended in vehicle at 5, 15, or 50 mg/kg on the same schedule. TGI was determined on Day 19 as (1−Difftreated/Diffcontrol)×100; The difference mean net tumor volumes on the day of TGI analysis for treated versus control animals was evaluated statistically using one-way ANOVA followed by Dunnett's multiple comparisons test; Adjusted p-values are shown where a calculated probability (p)≤0.05 was considered statistically significant. Individual tumors were measured twice weekly in three dimensions using a caliper, and the tumor volumes (TV) in mm3 were calculated using the formula: TV=0.5 (l×w×h), where l, w, and h are the tumor length, width, and height in mm, respectively; Mean tumor volumes SEM were calculated and plotted versus days of dosing (left panel). Body weights were measured twice weekly. Body weights±SEM were calculated and plotted versus days of dosing (right panel).

[6] = tested on: H3K36me3; assay: dose-dependent inhibition of histone demethylase, H3K36me3 immunoblot; type: cell-based; conditions: FIG. 6
Protocol: FIG. 6 illustrates the dose-dependent inhibition of histone demethylase by Compound 1. Left Panel: Representative immunoblot showing change in staining intensity for actin (red bands) and H3K36me3 (green bands) in response to Compound 1 at various concentrations. Right Panel: Normalized ratio of band intensities for H3K36me3 and actin versus the concentration of Compound 1 (μM). (mean IC50±SD value−0.085±0.004 μM).

[7] = tested on: KDM4; assay: inhibition of H3K9me3 demethylation, TR-FRET LANCE detection; type: biochemical; conditions: in the presence of α-KG
Protocol: Inhibition of […] demethylation was measured at various Compound 1 concentrations in the presence of α-KG using time-resolved fluorescence-based (TR-FRET) LANCE® detection.

## CC(C)c1ccc(N(C)c2ccc3c(c2)OCC[C@H]3CNc2cnccc2C(=O)O)cc1 [Compound 1, 3-({[(4R)-7-{methyl[4-(propan-2-yl)phenyl]amino}-3,4-dihydro-2H-1-benzopyran-4-yl]methyl}amino)pyridine-4-carboxylic acid]
[1]
  IC50: > 1 µM
[2]; Homo sapiens, SU106 colorectal carcinoma model
  IC50: > 10 µM
[2]; SU106 human colorectal carcinoma organoid, 144 hrs, Colony Counts
  IC50: > 10 µM
[3]; Homo sapiens, T016P pancreatic carcinoma model
  IC50: > 10 µM
[3]; T016P human pancreatic carcinoma organoid, 144 hrs, Colony Counts
  IC50: > 10 µM
[4]; Homo sapiens, T028P pancreatic carcinoma model
  IC50: > 10 µM
[4]; T028P human pancreatic carcinoma organoid, 144 hrs, Colony Counts
  IC50: > 10 µM
[5]; lysine salt 5 mg/kg (free acid equivalents) PO 3 on/4 off
  Median Tumor Volumes Day 19: 824 mm^3
[5]; lysine salt 15 mg/kg (free acid equivalents) PO 3 on/4 off
  Median Tumor Volumes Day 19: 569 mm^3
[5]; lysine salt 50 mg/kg (free acid equivalents) PO 3 on/4 off
  Median Tumor Volumes Day 19: 359 mm^3
[5]; 5 mg/kg PO 3 on/4 off, 5 mg/kg
  % TGI: 19%
[5]; 5 mg/kg PO 3 on/4 off, listed as compound 4, 5 mg/kg
  % TGI: 19%
[5]; 5 mg/kg PO 3 on/4 off
  Median Tumor Volumes Diff.: 719 mm^3
[5]; 15 mg/kg PO 3 on/4 off, 15 mg/kg
  % TGI: 50%
[5]; 15 mg/kg PO 3 on/4 off, listed as compound 4, 15 mg/kg
  % TGI: 50%
[5]; 15 mg/kg PO 3 on/4 off
  Median Tumor Volumes Diff.: 442 mm^3
[5]; 50 mg/kg PO 3 on/4 off, 50 mg/kg
  % TGI: 72%
[5]; 50 mg/kg PO 3 on/4 off, listed as compound 4, 50 mg/kg
  % TGI: 72%
[5]; 50 mg/kg PO 3 on/4 off
  Median Tumor Volumes Diff.: 250 mm^3
[6]
  mean IC50±SD, H3K36me3/actin band intensity ratio: 0.085 ± 0.004 µM
[7]
  mode of inhibition of H3K9me3 demethylation: reversible and competitive inhibition
